Tests used:
H9C2 cells [1] = assay: Mitochondrial ROS, MitoSox Red, H9C2; type: cell-based, Rat; conditions: H9C2, Dox alone
Method: AP39 treatment also ameliorated Dox toxicity in a model of Rat cardiomyoblast cell line, H9C2. […] There was a narrow window of protection, as 30 μM and 50 μm doses were not as strong as the 40 μM dose (FIGS. 5A and B) in conferring protection. […] Note that Dox caused an apoptotic phenotype in correlation with ROS levels (FIG. 5F, Dox lane). This in vitro AP39 protection is modest when compared to the in vivo scenario. This difference may be due to rapid clearance of toxic metabolites (for instance, higher lactate production, FIG. 10D) and better oxygen supply (AP39 stimulated OCR, FIG. 7C) in vivo and lack of such sophistication in vitro.

[2] = cited from earlier work
[3] = test system: SK-N-BE(2) neuroblastoma cell line; assay: Cell viability (images, MTT) of SK-N-BE(2) neuroblastoma cell line; type: cell-based, human
Method: (§1) Methods for cell viability: Cells were plated in 96 wells/6 wells cell culture plates. After 24 hrs of plating, the treatments (added in the growth medium) were conducted. The following assays were performed after 24 hrs of the treatments (day 2). (FIGS. 15A, 17-20, 24-27)
(§2) MTT assay methods. For the MTT assay, […] of 5 mg/ml MTT-tetrazolium salts in PBS was added to each well containing the growth medium. After 3 hours of incubation, the medium was removed and the formazan crystals were dissolved by adding DMSO. The absorption of the formazan solution was measured using a spectrophotometer at a wavelength of 570 nm. FIGS. 15B, 21-22.
The SK-N-BE(2) neuroblastoma cell line was exposed to control, AP39 (AP) at 40 or 60 μM, Doxorubicin at 2.5 or 20 μM, thiolactate at 10 mM, AP39 and Doxorubicin, AP39 and thiolactate, or Doxorubicin and Thiolactate. […] FIGS. 17, 21, 24-25.

[4] = test system: Myc/Max-regulated transcripts; assay: RNAseq analysis in H9C2 cell line; type: cell-based, Rat; conditions: H9C2, Dox alone
Method: The coverage among groups are indicated.
Next, to interrogate mechanisms of AP39 protection against DIC, RNAseq analysis was performed. There was sufficient coverage of the whole transcriptome among the groups (FIG. 8A).

[5] = 13C-glucose isotope tracing and GC-MS metabolite quantification; type: cell-based
Method: Stable isotope (13C glucose) tracer studies. Heatmap.
To this end, 13C-glucose flux/isotope tracing and quantified metabolites through GC-MS were examined at 16 hrs and 24 hrs after the treatments. Glucose, glutamine and lactate were also measured in supernatants at these time points. […] With the exception of glycolytic metabolites, the remaining metabolic pathways (poor labeling) were non-operational after Dox treatment (FIG. 10A).
When considered AP39-mediated activation of AMPK, H2S is selectively halting energy consuming anabolic pathways, such as protein synthesis (also, lipid, AMPK inhibits […], a rate limiting lipid synthesizing enzyme, FIGS. 7A and B), as observed before^41, thus leading to accumulation of amino acids and is enhancing TCA cycle through AMPK activation. The net result is better energy management with AP39/H2S treatment.

[6] = test system: SK-N-BE(2) and SK-N-BE(1) cell lines; conditions: previous study; cited from earlier work
hiPSC-CMs = assay: DIC in hiPSC-CMs (Annexin V, MitoSox Red); type: cell-based, human
H9C2 cells [7] = assay: Mitochondrial H2S levels (AzMAC) and morphology (mitotracker Red) in H9C2 cells; type: cell-based, Rat; conditions: H9C2, single agent vs control
From the text: Note that white arrow heads and yellow arrows compare and contrast no-H2S: fusion and H2S-presence: fission scenarios in the same image AP39 treatment lane.
Mitochondrial fission was correlated with H2S levels. To investigate the impact of Dox on mitochondrial biogenesis and mitochondrial H2S levels, H9C2 cells were used in combination with H2S sensitive dye AzMAC and mitotracker Red dye as reported previously^8. […] Further, H2S levels (yellow arrows) highly correlated with a dotted appearance of mitochondria, implying that H2S causes mitochondrial fission, which is a prerequisite for eliminating damaged mitochondria^49.

[8] = test system: 786-O cells renal cancer cells; assay: Cell viability of 786-O renal cancer cells; type: cell-based
Method: as §1, §2
786-O cells renal cancer cells were exposed to control, AP39 (AP) at 40 or 60 μM, Doxorubicin at 2.5 or 20 μM, thiolactate at 10 mM, AP39 and Doxorubicin, AP39 and thiolactate, or Doxorubicin and Thiolactate. […] FIGS. 18 and 21.

H1299 lung cancer cells = assay: Cell viability of H1299 lung cancer cells; type: cell-based
Method: as §1, §2
H1299 lung cancer cells were exposed to control, AP39 (AP) at 40 or 60 μM, Doxorubicin at 2.5 or 20 μM, thiolactate at 10 mM, AP39 and Doxorubicin, AP39 and thiolactate, or Doxorubicin and Thiolactate. […] FIGS. 20-22.

A549 lung cancer cells = assay: Cell viability of A549 lung cancer cells; type: cell-based
Method: as §1, §2
A549 lung cancer cells were exposed to control, AP39 (AP) at 40 or 60 μM, Doxorubicin at 2.5 or 20 μM, thiolactate at 10 mM, AP39 and Doxorubicin, AP39 and thiolactate, or Doxorubicin and Thiolactate. […] FIGS. 19 and 21.

MCF7 breast cancer cells = assay: Cell viability (MTT, crystal violet) of MCF7 breast cancer cells; type: cell-based
Method: as §1, §2
Crystal Violet (CV) assay. For the CV Staining assay, cells were stained with 0.5% crystal violet in 30% ethanol for 10 minutes at room temperature after removal of the medium. The cells were lysed in a 1% SDS (sodium dodecyl sulfate) solution. The absorbance of the solution was measured using a spectrophotometer at a wavelength of 595 nm. FIG. 27.
MCF7 breast cancer cells were exposed to control, AP39 (AP) at 40 or 60 μM, Doxorubicin at 2.5 or 20 μM, thiolactate at 10 mM, AP39 and Doxorubicin, AP39 and thiolactate, or Doxorubicin and Thiolactate. […] FIGS. 26-27.

[9] = AP39 40 or 60 μM, thiolactate 10 mM, 24 hrs
[10] = combination with Doxorubicin 2.5 μM

COc1cccc2c1C(=O)c1c(O)c3c(c(O)c1C2=O)C[C@@](O)(C(=O)CO)C[C@@H]3O[C@H]1C[C@H](N)[C@H](O)[C@H](C)O1 [Dox, Doxorubicin]
mitochondrial ROS levels (H9C2 cells [1]): elevating damaging ROS levels | late cardiac dysfunction incidence ([2]; after Dox treatment): 16% | sub-clinical disease rate ([2]; after Dox treatment): over 50% | Cumulative left ventricular systolic dysfunction (LVSD) incidence rate ([2]; within 18 months of Dox treatment): 12% | effective Dox dose ([3]; AP39 used along with Dox): 2.5 µM | IC70 of Dox ([3]; Dox alone, 24 hrs): 20 µM | Myc transcription [4]: attenuated Myc transcription | Serine and glycine 13C labeling ([5]; 16 hrs and 24 hrs): highly labeled | abundance of most metabolites (GC-MS) ([5]; 24 hrs of Dox treatment): present in abundant amounts | IC90 for SK-N-BE(2) relative to IC90 for SK-N-BE(1) [6]: 9230 times | DIC in hiPSC-CMs at lower dose of Dox (hiPSC-CMs; 2.5 μM Dox, donor, data not showed): exhibited resistance to DIC | cell death in hiPSC-CMs (hiPSC-CMs; 7.5 μM Dox, 48 hrs): significant cell death | mitochondrial H2S levels (AzMAC) (H9C2 cells [7]): significantly reduced mitochondrial H2S production | mitochondrial morphology (fission / fusion) (H9C2 cells [7]): mitochondrial fusion

CC(S)C(=O)O (stereo not drawn) [thiolactate, Thiolactate]
cell killing, agent alone [8, 9]: able to kill renal cancer cells | potency of low doses of Doxorubicin [8, 10]: able to increase the potency of low doses of Doxorubicin | cell killing, agent alone [3, 9]: able to kill SK-N-BE(2) cells | potency of low doses of Doxorubicin [3, 10]: able to increase the potency of low doses of Doxorubicin | cell killing, agent alone (H1299 lung cancer cells; [9]): able to kill lung cancer cells | potency of low doses of Doxorubicin (H1299 lung cancer cells; [10]): able to increase the potency of low doses of Doxorubicin | cell killing, agent alone (A549 lung cancer cells; [9]): able to kill lung cancer cells | potency of low doses of Doxorubicin (A549 lung cancer cells; [10]): able to increase the potency of low doses of Doxorubicin | cell killing, agent alone (MCF7 breast cancer cells; [9]): able to kill breast cancer cells | potency of low doses of Doxorubicin (MCF7 breast cancer cells; [10]): able to increase the potency of low doses of Doxorubicin
